Assays:
[1] = target: Acetylcholinesterase (E.C.3.1.1.7, from electric eel) (Electrophorus electricus, UniProt O42275); test: biochemical; assay type: biochemical; settings: for IC50: electric eel AChE, pH 7.7, 37 °C, triplicate, read-out: Acetylcholinesterase (AChE) IC50 ± SEM
[2] = target: butyrylcholinesterase (E.C. 3.1.1.8, from horse serum) (Equus caballus, UniProt P81908); test: In vitro butyrylcholinesterase inhibition assay (Ellman's method); assay type: biochemical; settings: for Butyrylcholinesterse (BChE) %inhibition: compounds with <50% inhibition
Sequence of butyrylcholinesterase (E.C. 3.1.1.8, from horse serum) (P81908 whole entry): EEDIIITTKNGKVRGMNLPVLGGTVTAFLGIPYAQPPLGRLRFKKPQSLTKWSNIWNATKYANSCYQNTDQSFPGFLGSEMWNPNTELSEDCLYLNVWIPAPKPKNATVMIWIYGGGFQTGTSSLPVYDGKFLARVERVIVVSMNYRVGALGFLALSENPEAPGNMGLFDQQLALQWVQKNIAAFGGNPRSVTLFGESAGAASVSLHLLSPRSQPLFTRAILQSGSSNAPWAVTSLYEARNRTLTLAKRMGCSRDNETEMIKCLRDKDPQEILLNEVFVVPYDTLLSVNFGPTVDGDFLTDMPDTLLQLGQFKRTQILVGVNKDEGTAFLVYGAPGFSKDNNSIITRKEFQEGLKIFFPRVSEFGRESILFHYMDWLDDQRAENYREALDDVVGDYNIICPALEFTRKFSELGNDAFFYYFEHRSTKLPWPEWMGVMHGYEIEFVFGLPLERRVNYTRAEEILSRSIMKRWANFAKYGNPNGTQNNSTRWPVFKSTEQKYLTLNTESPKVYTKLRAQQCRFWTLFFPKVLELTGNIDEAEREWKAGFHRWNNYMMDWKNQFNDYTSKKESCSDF

acetylcholinesterase = acetylcholinesterase (Electrophorus electricus, UniProt O42275); test: Kinetics studies, mechanism of inhibition (Lineweaver-Burk); assay type: biochemical, electric eel; settings: substrate acetylthiocholine iodide; Vmax not affected, Km increased
Sequence of acetylcholinesterase (O42275 24-633): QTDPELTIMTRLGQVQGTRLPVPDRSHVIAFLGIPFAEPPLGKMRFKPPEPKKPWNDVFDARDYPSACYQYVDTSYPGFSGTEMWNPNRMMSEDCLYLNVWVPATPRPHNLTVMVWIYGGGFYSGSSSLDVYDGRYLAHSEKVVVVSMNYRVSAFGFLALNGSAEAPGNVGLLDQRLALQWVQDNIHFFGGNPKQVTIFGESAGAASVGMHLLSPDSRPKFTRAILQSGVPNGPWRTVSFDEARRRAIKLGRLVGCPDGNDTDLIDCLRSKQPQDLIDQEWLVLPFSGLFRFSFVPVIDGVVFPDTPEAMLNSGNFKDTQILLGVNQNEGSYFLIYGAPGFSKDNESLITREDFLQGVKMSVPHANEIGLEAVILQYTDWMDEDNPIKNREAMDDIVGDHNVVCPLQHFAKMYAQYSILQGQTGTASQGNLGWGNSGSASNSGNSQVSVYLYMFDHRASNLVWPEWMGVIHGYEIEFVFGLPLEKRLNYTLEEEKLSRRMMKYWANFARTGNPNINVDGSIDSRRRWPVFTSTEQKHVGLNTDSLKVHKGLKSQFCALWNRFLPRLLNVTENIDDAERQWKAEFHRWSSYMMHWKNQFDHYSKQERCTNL
Experimental: Enzyme kinetics were used to determine the mechanism of acetylcholinesterase inhibition. Lineweaver-Burk graph ([…]) were used for the determination of the type of inhibition and analysis of effect of inhibitor on Vmax and Kₘ. The slope Km/Vmax of each line in the Lineweaver-Burk plot was plotted against different concentrations of substrate and chemicals to determine the value of Ki.
Kinetics studies were performed on 5b and 5d with different concentrations of compounds and substrate. Four concentrations of 1 mM compound 5b (0, 0.06, 0.12, 0.18 µM), compound 5d (0, 0.3, 0.6, 0.9 µM) and four concentrations of substrate (0, 0.5, 1.0, 1.5 and 2.0 mM showing 1/S as 0.0, 2.0, 1.0, 0.667 and 0.5, respectively) were made. Both compounds competes with substrate (acetylthiocholine iodide) for binding in the active site of acetylcholinesterase.
Michaelis-Menten kinetics experiments were used to determine the type of enzyme inhibition. […] For this purpose, the initial rates of the enzyme inhibition at four concentrations of substrate (0, 0.5, 1.0, 1.5, 2.0 mM) in the absence and presence of four different concentrations of compound 5b (0, 0.06, 0.12, 0.18 µM) and compound 5d (0, 0.3, 0.6, 0.9 µM) against acetylcholinesterase were measured.

Sequence of Acetylcholinesterase (E.C.3.1.1.7, from electric eel) (O42275 24-633): as above

| Structure (SMILES) | IC50 [1] [µM] | IC50 ([2]; horse serum BChE, pH 7.7, 37 °C, triplicate, read-out: Butyrylcholinesterse (BChE) IC50 ± SEM) [µM] | Butyrylcholinesterse (BChE) %inhibition [2] [%] | Mode of inhibition of acetylcholinesterase (acetylcholinesterase) | Potency against AChE relative to standard drug galantamine ([1]; ratio of IC50 values vs galantamine) [fold] |
| --- | --- | --- | --- | --- | --- |
| COc1ccc2nc(Cl)c(C=NNC(=S)Nc3ccccc3)cc2c1 [Compound 5g, 2-((2-Chloro-6-methoxyquinolin-3-yl)methylene)-N-phenylhydrazinecarbothioamide] | 34.2 ± 1.02 | 11.3 ± 0.67 |  |  |  |
| Cc1ccc2cc(C=NNC(=S)NCCN3CCOCC3)c(Cl)nc2c1 [Compound 5d, 2-((2-Chloro-7-methylquinolin-3-yl)methylene)-N-(2-morpholinoethyl)hydrazinecarbothioamide] | 0.55 ± 0.01 |  | 1.52 | competitive inhibition |  |
| Cc1ccc2cc(C=NNC(=S)Nc3ccccc3)c(Cl)nc2c1 [Compound 5j, 2-((2-Chloro-7-methylquinolin-3-yl)methylene)-N-phenylhydrazinecarbothioamide] | 46.5 ± 3.12 |  | 16.8 |  |  |
| S=C(NN=Cc1cc2ccccc2nc1Cl)Nc1ccccc1 [Compound 5f, 2-((2-Chloroquinolin-3-yl)methylene)-N-phenylhydrazinecarbothioamide] | 23.2 ± 1.28 |  | 4.47 |  |  |
| COc1ccc2cc(C=NNC(=S)NCCN3CCOCC3)c(Cl)nc2c1 [Compound 5c, 2-((2-Chloro-7-methoxyquinolin-3-yl)methylene)-N-(2-morpholinoethyl)hydrazinecarbothioamide] | 5.53 ± 0.11 |  | 1.33 |  |  |
| Cc1ccc2nc(Cl)c(C=NNC(=S)Nc3ccccc3)cc2c1 [Compound 5h, 2-((2-Chloro-6-methylquinolin-3-yl)methylene)-N-phenylhydrazinecarbothioamide] | 49.3 ± 2.49 |  | 32.6 |  |  |
| COc1ccc2nc(Cl)c(C=NNC(=S)NCCN3CCOCC3)cc2c1 [Compound 5b, 2-((2-Chloro-6-methoxyquinolin-3-yl)methylene)-N-(2-morpholinoethyl)hydrazinecarbothioamide] | 0.12 ± 0.02 |  | 8.12 | competitive inhibition | 5 |
| S=C(NCCN1CCOCC1)NN=Cc1cc2ccccc2nc1Cl [Compound 5a, 2-((2-Chloroquinolin-3-yl)methylene)-N-(2-morpholinoethyl)hydrazinecarbothioamide] | 2.95 ± 0.24 |  | 3.32 |  |  |
| S=C(NN=Cc1cc2ccc(Cl)cc2nc1Cl)Nc1ccccc1 [Compound 5k, 2-((2,7-Dichloroquinolin-3-yl)methylene)-N-phenylhydrazinecarbothioamide] | 47.1 ± 1.45 |  | 20.3 |  |  |
| COc1ccc2cc(C=NNC(=S)Nc3ccccc3)c(Cl)nc2c1 [Compound 5i, 2-((2-Chloro-7-methoxyquinolin-3-yl)methylene)-N-phenylhydrazinecarbothioamide] | 60.9 ± 6.57 |  | 24.0 |  |  |
| S=C(NCCN1CCOCC1)NN=Cc1cc2ccc(Cl)cc2nc1Cl [Compound 5e, 2-((2,7-Dichloroquinolin-3-yl)methylene)-N-(2-morpholinoethyl)hydrazinecarbothioamide] | 10.5 ± 0.16 |  | 1.88 |  |  |

Reference: PMC8587653 (Molecules, 2021)
